Patent publication US20070128217A1 (priority 2003, published 2007)

What was measured:
[1] = tested on: control sera (pooled serum of ten healthy LUMC hospital workers; commercial negative donor pooled serum from the Dutch bloodbank); assay type: binding, human; set-up: Binding of Control serum LUMC to linear peptides / Binding of Control serum Blood-bank to linear peptides / Binding of Control serum LUMC to looped peptides / Binding of Control Serum Blood-Bank to Looped peptides / Binding of Control serum LUMC to linear peptides of the protein M of SARS-CoV Urbani / Binding of Control serum Blood-bank to linear peptides of the protein M of SARS-CoV Urbani / Binding of Control serum LUMC to looped peptides of the protein M of SARS-CoV Urbani / Binding of Control Serum Blood-Bank to Looped peptides of the protein M of SARS-CoV Urbani: unit not given here
[2] = tested on: rabbit serum obtained by immunizing a rabbit with the SARS-CoV strain Frankfurt 1; assay type: binding; set-up: Binding of a rabbit serum to linear peptides / Binding of a rabbit serum to looped peptides / Rabbit serum linear peptides / Rabbit serum looped peptides / Binding of a rabbit serum to linear peptides of protein N of SARS-CoV Urbani (Rabbit serum linear peptides) / Binding of a rabbit serum to looped/cyclic peptides of protein N of SARS-CoV Urbani (Rabbit serum looped peptides): unit not given here
[3] = tested on: antibodies in sera from SARS patients (sera 1a, 1b, 2, 6, 37, 62, London, SARS-yellow, SARS-green); assay type: binding, human; set-up: Binding of serum 6 to linear peptides of protein X1 of SARS-CoV Urbani / Binding of serum 37 to linear peptides of protein X1 of SARS-CoV Urbani / Binding of serum 6 to looped/cyclic peptide (PEPSCAN-ELISA) / Binding of serum 37 to looped/cyclic peptide (PEPSCAN-ELISA) / Binding of serum 37 to looped/cyclic peptides of protein X1 of SARS-CoV Urbani / Binding of serum 6 to linear peptides of protein X2 / Binding of serum 37 to linear peptides of protein X2 / Binding of serum 37 to looped/cyclic peptides of protein X2 of SARS-CoV Urbani / Binding of serum 6 to linear peptides of protein M of SARS-CoV Urbani / Binding of serum 37 to linear peptides of protein M of SARS-CoV Urbani / Binding of serum 6 to looped/cyclic peptides of protein M of SARS-CoV Urbani / Binding of serum 37 to looped/cyclic peptides of protein M of SARS-CoV Urbani / Binding of serum 6 to linear peptides of protein X3 of SARS-CoV Urbani / Binding of serum 37 to linear peptides of protein X3 of SARS-CoV Urbani / Binding of serum 37 to looped/cyclic peptides of protein X3 of SARS-CoV Urbani / Binding of serum 6 to linear peptides of protein X4 of SARS-CoV Urbani / Binding of serum 37 to linear peptides of protein X4 of SARS-CoV Urbani / Binding of serum 37 to looped/cyclic peptides of protein X4 of SARS-CoV Urbani / Binding of serum 6 to linear peptides of protein X5 of SARS-CoV Urbani / Binding of serum 37 to linear peptides of protein X5 of SARS-CoV Urbani / Binding of serum 37 to looped/cyclic peptides of protein X5 of SARS-CoV Urbani / Binding of serum 6 to linear peptides of protein N of SARS-CoV Urbani / Binding of serum 37 to linear peptides of protein N of SARS-CoV Urbani / Binding of serum 6 to linear peptide (PEPSCAN-ELISA) / Binding of serum 1a to looped/cyclic peptides of protein N of SARS-CoV Urbani / Binding of serum 1b to looped/cyclic peptides of protein N of SARS-CoV Urbani / Binding of serum 2 to looped/cyclic peptides of protein N of SARS-CoV Urbani / Binding of serum 6 to looped/cyclic peptides of protein N of SARS-CoV Urbani / Binding of serum 37 to looped/cyclic peptides of protein N of SARS-CoV Urbani / Binding of serum 62 to looped/cyclic peptides of protein N of SARS-CoV Urbani / Binding of serum London to looped/cyclic peptides of protein N of SARS-CoV Urbani / Binding of serum SARS-green to looped/cyclic peptides of protein N of SARS-CoV Urbani: unit not given here

## ADNGTITVEELKQLL
[1]
  Binding of Control Serum Blood-Bank to Looped peptides of the protein M of SARS-CoV Urbani: 0.5
  Binding of Control serum Blood-bank to linear peptides of the protein M of SARS-CoV Urbani: 0.7
  Binding of Control serum LUMC to linear peptides of the protein M of SARS-CoV Urbani: 0.5
  Binding of Control serum LUMC to looped peptides of the protein M of SARS-CoV Urbani: 0.7
[2]
  Recognition of the peptide by the rabbit serum: recognized

## AMDPIYDEPTTTTSV
[1]
  Binding of Control Serum Blood-Bank to Looped peptides: 0.7
  Binding of Control serum Blood-bank to linear peptides: 0.8
  Binding of Control serum LUMC to linear peptides: 0.6
  Binding of Control serum LUMC to looped peptides: 0.7
[2]
  Binding of a rabbit serum to linear peptides: 0.1
  Binding of a rabbit serum to looped peptides: 0.4

## ANPAMDPIYDEPTTT
[1]
  Binding of Control Serum Blood-Bank to Looped peptides: 0.4
  Binding of Control serum Blood-bank to linear peptides: 0.4
  Binding of Control serum LUMC to linear peptides: 0.3
  Binding of Control serum LUMC to looped peptides: 0.4
[2]
  Binding of a rabbit serum to linear peptides: 0.1
  Binding of a rabbit serum to looped peptides: 0.4

## ASQRVGTDSGFAAYN
[1]
  Binding of Control Serum Blood-Bank to Looped peptides of the protein M of SARS-CoV Urbani: 0.7
  Binding of Control serum Blood-bank to linear peptides of the protein M of SARS-CoV Urbani: 0.8
  Binding of Control serum LUMC to linear peptides of the protein M of SARS-CoV Urbani: 0.5
  Binding of Control serum LUMC to looped peptides of the protein M of SARS-CoV Urbani: 0.8
[2]
  Rabbit serum linear peptides: 0.4
  Rabbit serum looped peptides: 0.1

## AYCCNIVNVSLVKPT
[1]
  Binding of Control Serum Blood-Bank to Looped peptides: 0.9
  Binding of Control serum Blood-bank to linear peptides: 0.9
  Binding of Control serum LUMC to linear peptides: 0.9
  Binding of Control serum LUMC to looped peptides: 0.8
[2]
  Binding of a rabbit serum to linear peptides: 0.3
  Binding of a rabbit serum to looped peptides: 0.2

## CVRGTTVLLKEPCPS
[1]
  Binding of Control Serum Blood-Bank to Looped peptides: 0.9
  Binding of Control serum Blood-bank to linear peptides: 0.8
  Binding of Control serum LUMC to linear peptides: 0.7
  Binding of Control serum LUMC to looped peptides: 0.9
[2]
  Rabbit serum linear peptides: 0.5
  Rabbit serum looped peptides: 0.5

## DANYFVCWHTHNYDY
[1]
  Binding of Control Serum Blood-Bank to Looped peptides: 0.5
  Binding of Control serum Blood-bank to linear peptides: 0.8
  Binding of Control serum LUMC to linear peptides: 0.8
  Binding of Control serum LUMC to looped peptides: 1.0
[2]
  Binding of a rabbit serum to linear peptides: 0.1
  Binding of a rabbit serum to looped peptides: 0.5

## DGISTPKLKEDYQIG
[1]
  Binding of Control Serum Blood-Bank to Looped peptides: 0.3
  Binding of Control serum Blood-bank to linear peptides: 0.5
  Binding of Control serum LUMC to linear peptides: 0.6
  Binding of Control serum LUMC to looped peptides: 0.3
[2]
  Binding of a rabbit serum to linear peptides: 0.1
  Binding of a rabbit serum to looped peptides: 0.4

## DNGTITVEELKQLLE
[1]
  Binding of Control Serum Blood-Bank to Looped peptides of the protein M of SARS-CoV Urbani: 0.4
  Binding of Control serum Blood-bank to linear peptides of the protein M of SARS-CoV Urbani: 0.7
  Binding of Control serum LUMC to linear peptides of the protein M of SARS-CoV Urbani: 0.8
  Binding of Control serum LUMC to looped peptides of the protein M of SARS-CoV Urbani: 0.7
[2]
  Recognition of the peptide by the rabbit serum: recognized

## DNKFALTCTSTHFAF
[1]
  Binding of Control Serum Blood-Bank to Looped peptides: 0.6
  Binding of Control serum Blood-bank to linear peptides: 0.7
  Binding of Control serum LUMC to linear peptides: 0.6
  Binding of Control serum LUMC to looped peptides: 0.8
[2]
  Rabbit serum linear peptides: 0.7
  Rabbit serum looped peptides: 0.6

## DPIYDEPTTTTSVPL
[1]
  Binding of Control Serum Blood-Bank to Looped peptides: 0.8
  Binding of Control serum Blood-bank to linear peptides: 0.5
  Binding of Control serum LUMC to linear peptides: 0.5
  Binding of Control serum LUMC to looped peptides: 0.7
[2]
  Binding of a rabbit serum to linear peptides: 0.1
  Binding of a rabbit serum to looped peptides: 0.5

## DRHSGVKDYVVVHGY
[1]
  Binding of Control Serum Blood-Bank to Looped peptides: 0.6
  Binding of Control serum Blood-bank to linear peptides: 0.7
  Binding of Control serum LUMC to linear peptides: 0.7
  Binding of Control serum LUMC to looped peptides: 0.4
[2]
  Binding of a rabbit serum to linear peptides: 0.1
  Binding of a rabbit serum to looped peptides: 0.5

## VFQSATKIIALNKRW
[3]
  Binding of serum 1a to linear peptides of protein X1 of SARS-CoV Urbani: 0.8
  Binding of serum 1a to looped/cyclic peptide (PEPSCAN-ELISA): 0.5
  Binding of serum 1b to linear peptides of protein X1 of SARS-CoV Urbani: 0.6
  Binding of serum 1b to looped/cyclic peptide (PEPSCAN-ELISA): 0.4
  Binding of serum 2 to linear peptides of protein X1 of SARS-CoV Urbani: 0.6
  Binding of serum 2 to looped/cyclic peptide (PEPSCAN-ELISA): 0.4
  Binding of serum 6 to linear peptides of protein X1 of SARS-CoV Urbani: 0.6
  Binding of serum 6 to looped/cyclic peptide (PEPSCAN-ELISA): 0.6
  Binding of serum 37 to linear peptides of protein X1 of SARS-CoV Urbani: 0.7
  Binding of serum 37 to looped/cyclic peptide (PEPSCAN-ELISA): 0.4
  Binding of serum 62 to linear peptides of protein X1 of SARS-CoV Urbani: 0.8
  Binding of serum 62 to looped/cyclic peptide (PEPSCAN-ELISA): 0.6
  Binding of serum London to linear peptides of protein X1 of SARS-CoV Urbani: 0.3
  Binding of serum London to looped/cyclic peptide (PEPSCAN-ELISA): 0.3
  Binding of serum SARS-green to linear peptides of protein X1 of SARS-CoV Urbani: 0.2
  Binding of serum SARS-green to looped/cyclic peptide (PEPSCAN-ELISA): 0.2
  Binding of serum SARS-yellow to linear peptides of protein X1 of SARS-CoV Urbani: 0.5
  Binding of serum SARS-yellow to looped/cyclic peptide (PEPSCAN-ELISA): 0.2
[2]
  Recognition of the peptide by the rabbit serum: recognized

## WQLALYKGFQFICNL
[3]
  Binding of serum 1a to linear peptides of protein X1 of SARS-CoV Urbani: 0.6
  Binding of serum 1a to looped/cyclic peptide (PEPSCAN-ELISA): 0.6
  Binding of serum 1b to linear peptides of protein X1 of SARS-CoV Urbani: 0.2
  Binding of serum 1b to looped/cyclic peptide (PEPSCAN-ELISA): 0.3
  Binding of serum 2 to linear peptides of protein X1 of SARS-CoV Urbani: 0.4
  Binding of serum 2 to looped/cyclic peptide (PEPSCAN-ELISA): 0.4
  Binding of serum 6 to linear peptides of protein X1 of SARS-CoV Urbani: 0.5
  Binding of serum 6 to looped/cyclic peptide (PEPSCAN-ELISA): 1.3
  Binding of serum 37 to linear peptides of protein X1 of SARS-CoV Urbani: 0.3
  Binding of serum 37 to looped/cyclic peptide (PEPSCAN-ELISA): 0.5
  Binding of serum 62 to linear peptides of protein X1 of SARS-CoV Urbani: 0.4
  Binding of serum 62 to looped/cyclic peptide (PEPSCAN-ELISA): 0.5
  Binding of serum London to linear peptides of protein X1 of SARS-CoV Urbani: 0.2
  Binding of serum London to looped/cyclic peptide (PEPSCAN-ELISA): 1.5
  Binding of serum SARS-green to linear peptides of protein X1 of SARS-CoV Urbani: 0.3
  Binding of serum SARS-green to looped/cyclic peptide (PEPSCAN-ELISA): 0.3
  Binding of serum SARS-yellow to linear peptides of protein X1 of SARS-CoV Urbani: 0.4
  Binding of serum SARS-yellow to looped/cyclic peptide (PEPSCAN-ELISA): 0.5
[2]
  Binding of a rabbit serum to linear peptides: 0.5
  Binding of a rabbit serum to looped peptides: 0.6
